Results on 14 molecules are retold here after patent US20070212428A1, “METHODS AND COMPOSITIONS FOR TREATING MOOD DISORDER” (MOOD MANAGEMENT SCIENCES, INC., priority 2004, published 2007).

Counter-ions that a name gives are not always drawn. Like-named read-outs stand apart in the source and are kept apart here.

Data set [1] concerns norepinephrine neuronal reuptake. The settings on record: cited from earlier work.
Data set [2] deals with dopamine neuronal reuptake. The following applies: cited from earlier work.
For data set [3], the system named is GABA uptake or degradation. The following applies: cited from earlier work.
In data set [4] the test system is GABAA or GABAB. The following applies: cited from earlier work.
For data set [5] the following is noted: cited from earlier work; for oral absorption (in words): oral administration; for time to peak plasma concentration: after oral dosing; for elimination half-life: plasma.
The subject of data set [6] is Dysthymia. Kind of data set: Example 10: case, dysthymia with general anxiety disorder. The settings on record: earlier treatment with 40 mg.
The target in data set [7] is serotonin reuptake site (Homo sapiens, UniProt P31645). The settings on record: cited from earlier work.
The subject of data set [8] is cholinergic muscarinic receptors. The following applies: cited from earlier work.
Data set [9] addresses serotonin 5-HT2A receptor (Homo sapiens, UniProt P28223). The following applies: cited from earlier work.
For data set [10] the following is noted: cited from earlier work.
Data set [11] has as its system monoamine oxidase. The following applies: cited from earlier work.
In data set [12] the test system is dopaminergic, adrenergic, cholinergic, or histaminergic receptors. The following applies: in vitro; cited from earlier work.
Data set [13] has as its system human plasma proteins. The settings on record: cited from earlier work.
Data set [14] concerns Dysthymia. The data set is described as follows: Example 12: method for treating Dysthymia (a person). The settings on record: 10 years prior; 60 mg fluvoxamine, 40 mg paroxetine. The format is in vivo, human.
Data set [15] concerns bipolar I patients. The settings on record: cited from earlier work.
For data set [16], the system named is status epilepticus. The following applies: add-on therapy with other anti-epileptic drugs; cited from earlier work.
For data set [17], the system named is GABAA, BZD, and β adrenergic receptors. The following applies: cited from earlier work.
For data set [18] the following is noted: human, in vivo; cited from earlier work.
Data set [19] relates to cholinergic, muscarinic, and benzodiazepine receptors. The settings on record: cited from earlier work.
In data set [20] the test system is serotonin 5-HT1C, 5-HT1D and 5-HT1A receptors. The following applies: cited from earlier work.
Data set [21] has as its system dopamine D1 and haloperidol-sensitive sigma site. The settings on record: cited from earlier work.
In data set [22] the test system is cholinergic muscarinic or β1 and β2 adrenergic receptors. The following applies: cited from earlier work.
In data set [23] the test system is neuronal serotonin reuptake. The following applies: cited from earlier work.
Data set [24] concerns uptake of glutamate, or choline. The following applies: cited from earlier work.
For data set [25], the system named is dopamine D1 and D2, muscarinic, serotonin 5HT1A, 5HT2, 5HT3, β-1 and 2 adrenergic, α-1 and α-2 adrenergic, histamine H2 and H3, adenosine A1 and A2, opiate μ …. The settings on record: cited from earlier work.
The subject of data set [26] is histamine H1, serotonin 5HT1B, benzodiazepine, and chloride channel receptors. The settings on record: cited from earlier work.
For data set [27], the system named is dopamine D2 and D3, serotonin 5-HT2A, 5-HT2C, 5-HT1D and α-adrenergic receptors. The following applies: cited from earlier work.
In data set [28] the target is histamine H1 receptor (Homo sapiens, UniProt P35367). The settings on record: cited from earlier work.
For data set [29], the system named is D2, 5-HT2A, and 5-HT1D receptors. The settings on record: cited from earlier work.
Data set [30] concerns the target 5-HT1A receptor (Homo sapiens, UniProt P08908). The following applies: cited from earlier work.
Data set [31] relates to other receptor/binding sites tested, including the cholinergic muscarinic receptor. The settings on record: cited from earlier work.
Setting [32] is: maintenance treatment over eighteen months.
[33] abbreviates: 30 mg oral dose, over a 10 day period.
Setting [34] is: quetiapine fumarate (150 mg BID) and divalproex (500 mg BID).

serotonin reuptake site, sequence (P31645 whole entry): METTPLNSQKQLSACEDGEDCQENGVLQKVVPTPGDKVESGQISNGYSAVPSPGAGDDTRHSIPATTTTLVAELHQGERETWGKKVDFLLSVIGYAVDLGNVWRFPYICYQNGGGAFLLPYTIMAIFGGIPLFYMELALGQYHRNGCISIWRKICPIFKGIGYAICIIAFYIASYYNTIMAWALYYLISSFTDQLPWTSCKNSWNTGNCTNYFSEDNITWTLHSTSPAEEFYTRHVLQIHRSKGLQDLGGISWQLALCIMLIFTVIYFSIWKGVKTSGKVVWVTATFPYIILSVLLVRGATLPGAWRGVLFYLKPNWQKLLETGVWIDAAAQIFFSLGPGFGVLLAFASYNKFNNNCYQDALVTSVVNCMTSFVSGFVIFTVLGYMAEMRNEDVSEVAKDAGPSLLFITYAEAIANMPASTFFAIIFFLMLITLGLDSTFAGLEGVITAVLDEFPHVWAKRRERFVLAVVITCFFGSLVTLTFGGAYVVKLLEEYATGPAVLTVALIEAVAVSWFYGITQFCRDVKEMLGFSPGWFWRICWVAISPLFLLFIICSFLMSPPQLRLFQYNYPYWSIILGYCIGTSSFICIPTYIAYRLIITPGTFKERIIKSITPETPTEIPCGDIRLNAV
5-HT1A receptor, sequence (P08908 whole entry): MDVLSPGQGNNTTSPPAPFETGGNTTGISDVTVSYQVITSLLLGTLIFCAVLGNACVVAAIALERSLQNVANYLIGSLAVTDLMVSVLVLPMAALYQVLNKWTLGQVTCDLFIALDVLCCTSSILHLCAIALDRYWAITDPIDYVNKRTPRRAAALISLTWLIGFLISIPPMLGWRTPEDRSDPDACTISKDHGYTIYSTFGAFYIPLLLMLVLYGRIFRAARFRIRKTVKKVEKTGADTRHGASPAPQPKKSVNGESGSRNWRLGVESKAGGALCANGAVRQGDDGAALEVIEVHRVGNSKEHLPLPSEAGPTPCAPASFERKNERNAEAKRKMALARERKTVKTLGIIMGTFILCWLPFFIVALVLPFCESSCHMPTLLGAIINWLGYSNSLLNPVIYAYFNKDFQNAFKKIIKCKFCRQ
serotonin 5-HT2A receptor, sequence (P28223 whole entry): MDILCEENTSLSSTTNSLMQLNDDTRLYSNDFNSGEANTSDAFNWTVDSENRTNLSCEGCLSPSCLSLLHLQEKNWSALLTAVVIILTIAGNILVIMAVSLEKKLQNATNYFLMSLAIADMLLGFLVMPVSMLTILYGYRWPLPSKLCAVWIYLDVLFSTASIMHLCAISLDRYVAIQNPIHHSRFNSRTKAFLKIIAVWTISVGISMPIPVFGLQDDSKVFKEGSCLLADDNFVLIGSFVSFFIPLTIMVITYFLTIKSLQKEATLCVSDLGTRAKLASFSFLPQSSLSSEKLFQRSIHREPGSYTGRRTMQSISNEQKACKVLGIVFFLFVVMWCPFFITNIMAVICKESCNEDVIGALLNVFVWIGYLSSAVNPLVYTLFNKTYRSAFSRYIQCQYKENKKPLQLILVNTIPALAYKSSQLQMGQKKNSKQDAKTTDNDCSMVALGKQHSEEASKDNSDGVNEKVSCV
histamine H1 receptor, sequence (P35367 whole entry, species assumed): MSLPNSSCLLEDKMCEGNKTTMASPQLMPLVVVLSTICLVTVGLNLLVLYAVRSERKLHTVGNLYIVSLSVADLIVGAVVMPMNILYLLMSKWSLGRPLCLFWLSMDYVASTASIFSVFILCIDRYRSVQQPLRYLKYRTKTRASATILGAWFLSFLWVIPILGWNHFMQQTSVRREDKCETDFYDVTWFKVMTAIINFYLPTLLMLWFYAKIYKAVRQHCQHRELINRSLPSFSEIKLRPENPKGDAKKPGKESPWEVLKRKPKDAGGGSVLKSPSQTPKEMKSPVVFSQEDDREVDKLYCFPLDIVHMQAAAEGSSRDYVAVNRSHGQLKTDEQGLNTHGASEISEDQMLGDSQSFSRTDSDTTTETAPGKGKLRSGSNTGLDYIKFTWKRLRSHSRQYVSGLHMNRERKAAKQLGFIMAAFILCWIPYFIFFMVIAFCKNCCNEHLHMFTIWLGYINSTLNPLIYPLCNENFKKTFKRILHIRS

Consider “1-(aminoethyl)cyclohexaneacetic acid [gabapentin]”, for which, in data set [1], the “effect on norepinephrine reuptake (in words)” value is listed as “does not alter”. For the same molecule, in data set [2], the “effect on dopamine reuptake (in words)” value is given as “does not alter”. Further, in [3], the “inhibition of GABA uptake or degradation” value is recorded as “not an inhibitor”. In addition, the “effect on radioligand binding” value in data set [4] is “does not modify”.

Consider `CNCCC(Oc1ccc(C(F)(F)F)cc1)c1ccccc1.Cl` (racemic) [fluoxetine, (±)-N-methyl-3-phenyl-[(α,α,α-trifluoro-p-tolyl)oxyl]propylamine hydrochloride], for which the half life in [5] (following acute administration) was 24 to 72 h. Further, the “effect on depressive symptoms” value in [6] is on record as “decreased depressive symptoms”. The adverse effect entry in data set [6] (subsequently discontinued) was ““dulled” the patient cognitively”.

With `O=C1CCc2ccc(OCCCCN3CCN(c4cccc(Cl)c4Cl)CC3)cc2N1` [aripiprazole, 7-[4-[4-(2,3-dichlorophenyl)-1-piperazinyl]butoxy]-3,4-dihydrocarbostyril], the affinity result in data set [7] is given as “moderate affinity”; in data set [8], “no appreciable affinity”. For the same molecule, in data set [9], the functional activity result is on record as “antagonist”. In data set [5], the “oral absorption (in words)” value is “well absorbed”. For the same molecule, the pharmacokinetics result in data set [10] (lithium (1200-1800 mg/day) for 21 days with aripiprazole (30 mg/day)) was “did not result in clinically significant changes”.

Regarding `CNCC[C@H](Oc1cccc2ccccc12)c1cccs1.Cl` [duloxetine, (+)-(S)-N-methyl-γ-(1-naphthyloxy)-2-thiophenepropylamine hydrochloride], the “inhibition of monoamine oxidase” value in data set [11] is “does not inhibit”. In [12], the affinity result is recorded as “no significant affinity”.

With `CN(C)CCC[C@@]1(c2ccc(F)cc2)OCc2cc(C#N)ccc21` [escitalopram, S-(+)-1-[3-(dimethylamino)propyl]-1-(p-fluorophenyl)-5-phthalancarbonitrile oxalate], in data set [1], the “effect on norepinephrine reuptake (in words)” value is on record as “minimal effects”. For the same molecule, the “effect on dopamine reuptake (in words)” value in [2] is recorded as “minimal effects”. In data set [5], the “time to peak plasma concentration” value is given as “about 5 hours” and the elimination half-life is 27 to 32 h. In addition, the “time to steady state plasma concentrations” value in [5] (daily dosing) is listed as “a week”. Besides, the “increase of half life in elderly patients” value in [5] (elderly patients) is on record as “approximately 50%”. For the same molecule, the “binding to human plasma proteins” value in data set [13] was “approximately 56%”.

For `COCCCC/C(=N\OCCN)c1ccc(C(F)(F)F)cc1` [fluvoxamine], the “outcome of prior antidepressant trials” value in data set [14] was “unsuccessfully”.

`Nc1nnc(-c2cccc(Cl)c2Cl)c(N)n1` [lamotrigine, 3,5-diamino-6-(2,3-dichlorophenyl)-1,2,4-triazine]: the “delay of time to occurrence of a mood episode” value in data set [15] (approximately 200 mg/day, ranging from 100 mg/day to 400 mg/day) was “effective in delaying the time to occurrence of a mood episode”. Also, in data set [15] (setting [32]), the “mood pole against which predominantly effective” value was “predominantly effective against depression” and the “prevention of mood episodes compared with placebo” value is reported as “superior to placebo”. In addition, the “plasma concentration generally effective in controlling SE” value in data set [16] is given as “about 24 μg/ml”.

As for `Cc1cc2c(s1)Nc1ccccc1N=C2N1CCN(C)CC1` [olanzapine, 2-methyl-4-(4-methyl-1-piperazinyl)-10H-thieno[2,3-b][1,5]benzodiazepine], in data set [17], the binding entry was “binds weakly”.

For the molecule `NC(=O)N1c2ccccc2CC(=O)c2ccccc21` [oxcarbazepine, 10,11-dihydro-10-oxo-5H-dibenzo[b,f]azepine-5-carboxamide], the elimination half-life result in [5] is recorded as “about 2 hours”. In addition, in [18], the tolerability of dose result was “not be able to tolerate”.

For the molecule `Fc1ccc([C@@H]2CCNC[C@H]2COc2ccc3c(c2)OCO3)cc1` [paroxetine, (−)-trans-4R-(4′-fluorophenyl)-3S-[(3′,4′-methylenedioxyphenloxy)methyl]piperidine hydrochloride hemihydrate], the “outcome of prior antidepressant trials” value in data set [14] was “unsuccessfully”. Also, the “effect on norepinephrine reuptake (in words)” value in data set [1] is reported as “only very weak effects”. Besides, the “effect on dopamine reuptake (in words)” value in data set [2] is listed as “only very weak effects”. In addition, in [5] (setting [33]), the “fraction of dose renally excreted” value is on record as “Approximately 64%”, the “fraction of dose renally excreted as metabolites” value is given as 62% and the “fraction of dose renally excreted as the parent compound” value is reported as 2%. In addition, the “fraction of dose excreted in the feces” value in [5] (30 mg oral dose) is reported as 36%. For the same molecule, the “oral absorption (in words)” value in [5] was “completely absorbed”. For the same molecule, in data set [5] (repeated dosing), the “time to steady state plasma concentrations” value is “approximately 10 days”.

Regarding `OCCOCCN1CCN(C2=Nc3ccccc3Sc3ccccc32)CC1` [quetiapine, 5-[2-(4-dibenzo[b,f][1,4]thiazepin-11-yl-1-piperazinyl)ethoxy]ethanol fumarate], in [5], the “time to peak plasma concentration” value was 1.5 h and the elimination half-life entry is given as “about 6 hours”. Moreover, the “time to steady state plasma concentrations” value in data set [5] (repeated dosing) is given as “two”. In addition, in data set [10] (setting [34]), the “extent of absorption or mean oral clearance” value is reported as “without affecting” and the “increase of mean maximum plasma concentration at steady state” value was 17%. Also, in data set [10] (quetiapine fumarate (300 mg BID) with fluoxetine (60 mg once daily), haloperidol (7.5 mg BID) or risperidone (3 mg BID)), the steady-state pharmacokinetics entry is reported as “did not alter”. Besides, the affinity result in data set [19] is “no appreciable affinity”.

Consider `Cc1nc2n(c(=O)c1CCN1CCC(c3noc4cc(F)ccc34)CC1)CCCC2` [risperidone, 3-[2-[4-(6-fluoro-1,2-benzisoxazol-3-yl)piperidino]ethyl]-2-methyl-6,7,8,9-tetrahydro-4H-pyrido-[1,2-a]pyrimidin-4-one], for which the affinity result is “low to moderate affinity” in data set [20], “weak affinity” in [21] and “no affinity” in data set [22].

In the case of `Cc1ccsc1C(=CCCN1CCC[C@@H](C(=O)O)C1)c1sccc1C` [tiagabine, (−)-®-1-[4,4-Bis(3-methyl-2-thienyl)-3-butenyl]nipecotic acid hydrochloride], in data set [23], the “inhibition of serotonin reuptake (in words)” value is “does not significantly inhibit”. In addition, the “effect on norepinephrine reuptake (in words)” value in [1] is “does not significantly inhibit”. In addition, in data set [2], the “effect on dopamine reuptake (in words)” value is given as “does not significantly inhibit”. In addition, in data set [24], the “inhibition of uptake of glutamate or choline” value is “does not significantly inhibit”. Further, in data set [25], the binding result was “little or no binding”. Further, the binding entry in [26] is reported as “at concentrations greatly exceeding that is needed to inhibit the uptake of GABA”. In addition, in data set [5], the “time to peak plasma concentration” value is on record as “approximately 45 minutes” and the “oral absorption (in words)” value is on record as “rapid”. Besides, in data set [5] (as metabolites), the “fraction excreted in the feces” value was 63% and the fraction excreted renally is 25%. Further, the fraction excreted unchanged in [5] (human, in vivo) is reported as 2%.

`O=C1Cc2cc(CCN3CCN(c4nsc5ccccc45)CC3)c(Cl)cc2N1` [ziprasidone, 5-[2-[4-(1,2-benzoisothiazol-3-yl)-1-piperazinyl]ethyl]-6-chloro-1,3-dihydro-2H-indol-2-one]: the “inhibition of serotonin reuptake (in words)” value in data set [23] is “inhibited”. In data set [1], the “effect on norepinephrine reuptake (in words)” value is recorded as “inhibited”. In addition, the “in vitro binding affinity” value in data set [27] is recorded as “high in vitro binding affinity”; in data set [28] it was “moderate affinity”. The functional activity entry was “antagonist” in data set [29] and “agonist” in data set [30]. Moreover, the affinity result in [31] was “No appreciable affinity”. The elimination half-life result in data set [5] is reported as “about 7 hours”. The “time to steady state plasma concentrations” value in data set [5] (repeated dosing) is given as “one to three”.
